Among the data in patent publication US4049695A, “3-((3-Trifluoromethyl)phenyl)sulfonyl)-2-propenenitrile” (The Dow Chemical Company, priority 1976, dated 1977) are MIC values, retold here.

Structures are written as SMILES. Converted amounts (≈) assume the structure as drawn.

Common to all, as to assay: in vitro agar Petri dish dilution test
Common to all, as to type: cell-based

In assay [1] the test system is Pseudomonas Sp. Strain 10. The conditions noted are these: 100% inhibition, read-out: Minimum Inhibitory Concentration. An excerpt: (§1) The inventive product has antimicrobial activity. In the conventional in vitro agar Petri dish dilution test for determining bactericidal and fungicidal activity, the compound gave 100% inhibition against the indicated organisms at the following concentrations in parts per million, the tabulated values being indicated as minimum inhibitory concentrations (MIC).

In assay [2] the test system is Trichoderm Sp. Madison P-42. The conditions noted are these: 100% inhibition, read-out: Minimum Inhibitory Concentration.
Description: as §1

For another assay, the system named is Torulopsis Species. The conditions noted are these: 100% inhibition, read-out: Minimum Inhibitory Concentration.
Description: as §1

In the next assay the test system is P. pullulans. To be noted: 100% inhibition, read-out: Minimum Inhibitory Concentration.
Description: as §1

In a further assay the test system is S. aureus. To be noted: Staphylococcus aureus, 100% inhibition, read-out: Minimum Inhibitory Concentration.
Description: as §1

Another assay concerns C. albicans. The conditions noted are these: Candida albicans, 100% inhibition, read-out: Minimum Inhibitory Concentration.
Description: as §1

A further assay has as its system C. ips. The conditions noted are these: 100% inhibition, read-out: Minimum Inhibitory Concentration.
Description: as §1

For another assay, the system named is E. coli ATCC 11229. The conditions noted are these: Escherichia coli, ATCC11229, 100% inhibition, read-out: Minimum Inhibitory Concentration.
Description: as §1

The test system of the next assay is B. subtilis. To be noted: Bacillus subtilis, 100% inhibition, read-out: Minimum Inhibitory Concentration.
Description: as §1

Another assay relates to C. albicansNIH. To be noted: Candida albicans, 100% inhibition, read-out: Minimum Inhibitory Concentration.
Description: as §1

Assay [3] relates to K. pneumoniae M-1 Midland Hospital. To be noted: Klebsiella pneumoniae, 100% inhibition, read-out: Minimum Inhibitory Concentration.
Description: as §1

Another assay has as its system A. niger. The conditions noted are these: Aspergillus niger, 100% inhibition, read-out: Minimum Inhibitory Concentration.
Description: as §1

The next assay has as its system S. marcescens NIH. The conditions noted are these: Serratia marcescens, 100% inhibition, read-out: Minimum Inhibitory Concentration.
Description: as §1

The next assay relates to C. pelliculosa. The conditions noted are these: Hansenula anomala, 100% inhibition, read-out: Minimum Inhibitory Concentration.
Description: as §1

The next assay concerns P. chrysogenum. To be noted: Penicillium chrysogenum, 100% inhibition, read-out: Minimum Inhibitory Concentration.
Description: as §1

For another assay, the system named is S. typhosa. To be noted: 100% inhibition, read-out: Minimum Inhibitory Concentration.
Description: as §1

A further assay concerns T. mentagrophytes. The conditions noted are these: Trichophyton mentagrophytes, 100% inhibition, read-out: Minimum Inhibitory Concentration.
Description: as §1

For another assay, the system named is A. fumigatus. The conditions noted are these: Aspergillus fumigatus, 100% inhibition, read-out: Minimum Inhibitory Concentration.
Description: as §1

With `N#CC=CS(=O)(=O)c1cccc(C(F)(F)F)c1` [3-((3-(Trifluoromethyl)phenyl)sulfonyl)-2-propenenitrile], the MIC is 100 µg/mL (≈ 383 µM) in assay [1]; 50 µg/mL (≈ 191 µM) in assay [2]; 50 µg/mL (≈ 191 µM) with Torulopsis Species; 50 µg/mL (≈ 191 µM) with P. pullulans; 5 µg/mL (≈ 19.1 µM) with S. aureus; 50 µg/mL (≈ 191 µM) in the assay with C. albicans. The MIC in the assay on C. ips was 10 µg/mL (≈ 38.3 µM); in the assay on E. coli ATCC 11229 it was 50 µg/mL (≈ 191 µM); in the assay on B. subtilis, 5 µg/mL (≈ 19.1 µM); in the assay with C. albicansNIH, 50 µg/mL (≈ 191 µM); in [3] it was 50 µg/mL (≈ 191 µM); in the assay on A. niger, 50 µg/mL (≈ 191 µM). The MIC in the assay with S. marcescens NIH was determined as 50 µg/mL (≈ 191 µM); with C. pelliculosa, 10 µg/mL (≈ 38.3 µM); in the assay with P. chrysogenum, 50 µg/mL (≈ 191 µM); with S. typhosa, 5 µg/mL (≈ 19.1 µM); in the assay on T. mentagrophytes it was 10 µg/mL (≈ 38.3 µM); in the assay on A. fumigatus, 50 µg/mL (≈ 191 µM).
